Laboratory results taken from paper PMC6813354, “Bases of Bacterial Sodium Channel Selectivity Among Organic Cations” (Scientific Reports, 2019).

Biological target: T1, NaChBac (Halalkalibacterium halodurans, UniProt Q9KCR8)
T1 construct: gene BH1501; NaChBac in pTracer-CMV2, transiently expressed in tsA 201 cells; homotetramer
T1 sequence (Q9KCR8 1-274): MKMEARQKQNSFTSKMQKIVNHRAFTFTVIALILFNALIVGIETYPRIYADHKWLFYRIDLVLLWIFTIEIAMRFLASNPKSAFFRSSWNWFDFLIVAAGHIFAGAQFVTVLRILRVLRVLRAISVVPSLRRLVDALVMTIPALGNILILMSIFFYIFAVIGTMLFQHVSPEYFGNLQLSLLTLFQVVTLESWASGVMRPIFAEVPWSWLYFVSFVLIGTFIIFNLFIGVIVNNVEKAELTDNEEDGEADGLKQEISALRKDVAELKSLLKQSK
Test: whole-cell patch clamp
Assay type: cell-based
Settings: 142.5 mM external replacing Na+; pH 7.4; room temperature; weak pore block of Na+ current

SMILES | whole-cell patch clamp
CN [MA^+, methylammonium] | MA^+ reduces the sodium current amplitude more effectively than TMA^+ in WT and E191D mutant
C[N+](C)(C)C [TMA^+, tetramethylammonium] | different blocking effects of TMA^+ (purple) and MA^+ (orange), relative to Na^+ controls
